The values that follow are results of earlier work, collected in PMC11336009 (GeroScience, 2024).

Details in all cases: cited from earlier work
The test system of one data set is rat rotenone model of PD.
Data set [1] deals with rat 3-nitropropionic acid (3NP) model. Also noted: method as in PMID 31728850.
Data set [2] concerns diabetic mice after ischemic stroke. Also noted: method as in PMID 24821550.

In the case of `N#C[C@@H]1CCCN1C(=O)CNC12CC3CC(CC(O)(C3)C1)C2` [Vildagliptin], in the data set with rat rotenone model of PD, the “Effects in rat rotenone PD model” value was “mitigate striatal DA loss, neuroinflammation and motor deficits”. Besides, in data set [1], the “Effects in striatum of rat 3NP model of late-stage Huntington's disease” value was “reduce neuronal degeneration and markers of oxidative stress”.

For `Cn1c(=O)cc(N2CCC[C@@H](N)C2)n(Cc2ccccc2C#N)c1=O` [alogliptin], in the data set on rat rotenone model of PD (same effects as described for saxagliptin), the “Effects in rotenone challenged PD rats” value was “do the same”.

`CC#CCn1c(N2CCC[C@@H](N)C2)nc2c1c(=O)n(Cc1nc(C)c3ccccc3n1)c(=O)n2C` [linagliptin]: the “Neural stem cell proliferation after ischemic stroke” value in data set [2] is “augment neural stem cell proliferation”.

`N#C[C@@H]1C[C@@H]2C[C@@H]2N1C(=O)[C@@H](N)C12CC3CC(CC(O)(C3)C1)C2` [saxagliptin]: the “Effects in rat rotenone PD model” value in the data set on rat rotenone model of PD is “preserve TH levels within the SNc and mitigate striatal declines in DA and TH levels”.

With “liraglutide (HAEGTFTSDVSSYLEGQAAKEFIAWLVRGRG; chains of the INN, looked up) [GLP-1R agonist]”, in the data set with rat rotenone model of PD, the “Effects in rat rotenone model of PD” value is “mitigated motor deficits, striatal DA loss, SNc dopaminergic neuronal degeneration and neuroinflammation”.
